Results: patent publication US9975861B2, “Dual inhibitor compounds for use in the treatment of neurodegenerative disorders and alzheimer's disease” (FONDAZIONE ISTITUTO ITALIANO DI TECNOLOGIA, priority 2014, dated 2018)

What was measured:
[1] = test system: primary astrocytes and microglial cells; test: Nitrites measurement (Griess reaction) in LPS-stimulated primary glial cells; format: cell-based, rat; conditions: for reduction of LPS-induced nitrite production: compounds 10 μM for 1 hour, then LPS 10 μg/mL for 24 hours, astrocytes and microglia, potency compared with 6-amino triazinones A-C (FIGS. 2A, 2B); for nitrite production in astrocyte cells: compounds 10 μM, LPS 10 μg/mL 24 hours, astrocyte cells (FIG. 2A)
Protocol: Astrocytes were prepared from neonatal (P2) rat cerebral cortex, as previously described by Luna-Medina et al. [Luna-Medina, R.; Cortes-Canteli, M.; Alonso, M.; Santos, A.; Martinez, A.; Perez-Castillo, A. Regulation of inflammatory response in neural cells in vitro by thiadiazolidinones derivatives through peroxisome proliferator-activated receptor gamma activation. J. Biol. Chem. 2005, 280, 21453-21462].
Briefly, after removal of the meninges, the cerebral cortex was dissected, dissociated, and incubated with 0.25% trypsin/EDTA at 37° C. for 1 hour. After centrifugation, the pellet was washed 3 times with Hank's balanced salt solution (HBSS) (Gibco) and the cells were placed on noncoated flasks and maintained in HAMS/Dulbecco's modified eagle's medium (DMEM) (1:1) medium containing 10% of fetal bovine serum (FBS). After 15 days, the flasks were agitated on an orbital shaker for 4 hours at 240 rpm at 37° C., the supernatant was collected, centrifuged, and the cellular pellet containing the microglial cells resuspended in complete medium (HAMS/DMEM (1:1) containing 10% FBS) and seeded on uncoated 96-well plates. Cells were allowed to adhere for 2 hours, and the medium was removed to eliminate nonadherent oligodendrocytes. New fresh medium containing 10 ng/mL of granulocyte-macrophage colony-stimulating factor (GM-CSF) was added. The remaining astroglial cells adhered on the flasks were then trypsinized, collected, centrifugated, and plated onto 96-well plates with complete medium. The purity of cultures obtained by this procedure was >98% as determined by immunofluorescence with the OX42 (microglial marker) and the glial fibrillary acidic protein (GFAP, astroglial marker) antibodies.
The potential anti-inflammatory activity of the selected compounds was tested by evaluating the production of nitrites from primary cultured glial cells. Primary cultures of astrocytes and microglia were incubated with the selected compounds (10 μM) for 1 hour, and then cells were cultured for another 24 hours with a potent inflammatory agent, such as lipopolysaccharide (LPS) (10 μg/mL). LPS is able to induce nitrite production and accumulation in the culture medium, which was assayed by the standard Griess reaction. Supernatants were collected from the media and mixed with an equal volume of Griess reagent (Sigma). Samples were then incubated at rt for 15 minutes and absorbance read using a plate reader at 492/540 nm.

[2] = test system: neurosphere cultures of primary rat neural stem cells; test: Neurosphere cultures, immunocytochemistry for neural markers; format: cell-based; conditions: 10 μM during a week; compared to control (FIG. 3)
Text: Neurosphere (NS) cultures were derived from the hippocampus of adult rats and induced to proliferate using established passaging methods to achieve optimal cellular expansion according to published protocols [Ferron, S. R.; Andreu-Agullo, C.; Mira, H.; Sanchez, P.; Marques-Torrejon, M. A.; Farinas, I. A combined ex/in vivo assay to detect effects of exogenously added factors in neural stem cells. Nature Protoc. 2007, 2, 849-859]. Rats were decapitated, brains removed, and the hippocampus dissected as described [Morales-Garcia, J. A.; Luna-Medina, R.; Alfaro-Cervello, C.; Cortes-Canteli, M.; Santos, A.; Garcia-Verdugo, J. M.; Perez-Castillo, A. Peroxisome proliferator-activated receptor gamma ligands regulate neural stem cell proliferation and differentiation in vitro and in vivo. Glia 2011, 59, 293-307]. Briefly, cells were seeded into 12-well dishes and cultured in DMEM/F12 (1:1, Invitrogen) containing 10 ng/mL epidermal growth factor (EGF, Peprotech, London, UK), 10 ng/mL fibroblast growth factor (FGF, Peprotech), and B27 medium (Gibco). After 3 days in culture, NS were cultivated in the presence or absence of the indicated compounds (10 μM) during a week. After that, NS from 10-day old cultures were plated for 72 hours onto 100 μg/mL poly-L-lysine-coated coverslips in the absence of exogenous growth factors.
Neurogenesis is a crucial property for new AD-modifying drugs, since it confers the potential to increase endogenous regeneration as a repair mechanism in the damaged brain, and reduce neuronal loss and degeneration. Considering that GSK-3β inhibition is reported to regulate and increase neurogenesis [Lange, C.; Mix, E.; Frahm, J.; Glass, A.; Muller, J.; Schmitt, O.; Schmole, A. C.; Klemm, K.; Ortinau, S.; Hubner, R.; Frech, M. J.; Wree, A.; Rolfs, A. Small molecule GSK-3 inhibitors increase neurogenesis of human neural progenitor cells. Neurosci. […]

SMILES	reduction of LPS-induced nitrite production [1]	nitrite production in astrocyte cells [1]	number of β-tubulin positive cells (immature neuronal marker) [2]	number of MAP-2 positive cells (mature neuronal marker) [2]
CCNC1=NC(c2ccc(F)cc2)NC(=O)N1 (racemic) [Example 3, 6-(ethylamino)-4-(4-fluorophenyl)-3,4-dihydro-1,3,5-triazin-2(1H)-one]	higher potency	restore nitrite production to basal level	significantly increased	–
CCCNC1=NC(c2ccc(F)cc2)NC(=O)N1 (stereo not drawn) [Example 6, 4-(4-fluorophenyl)-6-(propylamino)-3,4-dihydro-1,3,5-triazin-2(1H)-one]	higher potency	restore nitrite production to basal level	–	significantly amplified
